In patent US20090247560A1, “Diaryl ketimine derivative” (Banyu Pharmaceutical Co., Ltd., priority 2006, published 2009) one finds IC50 data, which are given here for eight compounds.

The target in the assay is T1, human MCH-1R (Homo sapiens, UniProt Q99705).
T1 construct: expressed in transfected cells; host or cells: CHO-K1 (American Type Culture Collection), membrane samples
T1 sequence (Q99705 whole entry): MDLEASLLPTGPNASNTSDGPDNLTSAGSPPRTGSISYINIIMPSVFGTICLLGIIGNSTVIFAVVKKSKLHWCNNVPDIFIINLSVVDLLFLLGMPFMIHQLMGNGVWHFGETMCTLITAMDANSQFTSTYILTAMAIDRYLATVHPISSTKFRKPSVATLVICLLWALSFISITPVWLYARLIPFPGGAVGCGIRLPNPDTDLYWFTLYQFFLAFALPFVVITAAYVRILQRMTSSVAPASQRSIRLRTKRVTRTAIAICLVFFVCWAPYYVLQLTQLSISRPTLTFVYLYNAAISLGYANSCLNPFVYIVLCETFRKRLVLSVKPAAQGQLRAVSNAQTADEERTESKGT
Kind of assay: MCH binding inhibition test. Particulars: inhibition of specific [125I]MCH binding to membranes of CHO-K1 cells expressing human MCH-1R; 25° C., one hour, pH 7.4. As for the experimental part: A human MCH-1R encoding cDNA sequence [FEBS Letters, Vol. 398, 253 (1996); Biochimica et Biophisica Acta, Vol. 1401, 216 (1998)] was cloned to a plasmid vector pEF/myc/cyto (Invitrogen Corporation). The obtained expression vector was transfected to host cells CHO-K1 (American Type Culture Collection) using Lipofectamine Plus Reagent (Life Technology Inc.) to provide MCH-1R expression cells.
Membrane samples prepared from the MCH-1R expression cells were incubated with each test compound and […] of [^125I]MCH (NEN Co.), in an assay buffer (50 mM Tris buffer comprising 10 mM magnesium chloride, 2 mM ethylenediamine tetraacetate, 0.01% bacitracin and 0.2% bovine serum albumin; pH 7.4) at 25° C. for an hour, followed by filtration through a glass filter CF/C (Wattman Co.). After washing the glass filter with 50 mM Tris buffer (pH 7.4) comprising 10 mM magnesium chloride, 2 mM ethylenediamine tetraacetate and 0.04% Tween-20, the radioactive activity on the glass filter was measured.
The compound `CN(C)C(=O)CO/N=C(/c1ccc(CN2CCC3(CC2)OCc2cc(F)ncc23)cc1)c1ccc(F)c(F)c1` [Example 2-6, 2-{[((1Z)-(3,4-difluorophenyl){4-[(6-fluoro-1H,1′H-spiro[furo[3,4-c]pyridine-3,4′-piperidin]-1′-yl)methyl]phenyl}methylene)amino]oxy}-N,N-dimethylacetamide] showed an IC50 of 0.27 nM. This counts as sub-nanomolar.
In the case of `Cn1cc2c(cc1=O)C1(CCN(Cc3ccc(/C(=N/OCF)c4ccc(F)c(F)c4)nc3)CC1)OC2` [Example 3-1-15, 1′-[(6-{(E)-(3,4-difluorophenyl)[(fluoromethoxy)imino]methyl}-3-pyridinyl)methyl]-5-methyl-3,5-dihydro-6H-spiro[furo[3,4-c]pyridine-1,4′-piperidin]-6-one], the IC50 was found to be 8.37 nM.
`FCCO/N=C(/c1ccc(CN2CCC3(CC2)OCc2ccncc23)cc1)c1ccc(F)c(F)c1` [Example 2-1-2, (Z)-(3,4-difluorophenyl)[4-(1H,1′H-spiro[furo[3,4-c]pyridine-3,4′-piperidin]-1′-ylmethyl)phenyl]methanone O-(2-fluoroethyl)oxime]: the IC50 worked out at 0.07 nM.
The figure for `Cn1cc2c(cc1=O)C1(CCN(Cc3ccc(/C(=N/OCC#N)c4ccc(F)c(F)c4)nc3)CC1)OC2` [Example 2-10-2, {[((1E)-(3,4-difluorophenyl){5-[(5-methyl-6-oxo-5,6-dihydro-1′H,3H-spiro[furo[3,4-c]pyridine-1,4′-piperidin]-1′-yl)methyl]pyridin-2-yl}methylene)amino]oxy}acetonitrile] is 9.03 nM.
`CC(c1ccc(/C(=N/OCC(C)(C)O)c2ccc(F)c(F)c2)nc1)N1CCC2(CC1)OCc1ccncc12` (single isomer, unassigned) [Example 3-1-13, (E)-(3,4-difluorophenyl){5-[1-(1H,1′H-spiro[furo[3,4-c]pyridine-3,4′-piperidin]-1′-yl)ethyl]-2-pyridinyl}methanone O-(2-hydroxy-2-methylpropyl)oxime] displayed an IC50 of 4.01 nM.
For `CCO/N=C(\c1ccc(F)c(F)c1)c1ccc(CN2CCC3(CC2)OCc2cc[n+]([O-])cc23)cn1` [Example 3-1-11, (E)-(3,4-difluorophenyl){5-[(5-oxido-1H,1′H-spiro[furo[3,4-c]pyridine-3,4′-piperidin]-1′-yl)methyl]-2-pyridinyl}methanone O-ethyloxime], the IC50 came to 4.7 nM.
The compound `CC(c1ccc(/C(=N/OCCF)c2ccc(F)c(F)c2)nc1)N1CCC2(CC1)OCc1ccncc12` (single isomer, unassigned) [Example 2-1-3, (E)-(3,4-difluorophenyl){5-[1-(1H,1′H-spiro[furo[3,4-c]pyridine-3,4′-piperidin]-1′-yl)ethyl]pyridin-2-yl}methanone O-(2-fluoroethyl)oxime] yielded an IC50 of 1.55 nM.
On to `CCO/N=C(\c1ccc(F)c(F)c1)c1ncc(CN2CCC3(CC2)OCc2ccncc23)cn1` [Example 1-3-2, (E) or (Z)-(3,4-difluorophenyl)[5-(1H,1′H-spiro[furo[3,4-c]pyridine-3,4′-piperidin]-1′-ylmethyl)pyrimidin-2-yl]methanone O-ethyloxime], for which the IC50 came out at 8.9 nM.
